Test results as given in patent US20230094870A1, “CHEMILU[…] FOR TUBERCULOSIS” (priority 2020, published 2023).
Non-standard residues stand in square brackets, D forms with d. Residues, ends and D or L forms follow the SMILES beside them. *: point of attachment. X1 = COC1(c2ccc(/C=C/C(=O)O)c(OCc3ccc(N*)cc3)c2Cl)OOC12C1CC3CC(C1)CC2C3; Phe(4-Cl) = N[C@@H](Cc1ccc(Cl)cc1)C(=O)O; Igl = N[C@H](C(=O)O)C1Cc2ccccc2C1

Experiments:
Mtb strain mc^26020 = type: cell-based, Mycobacterium tuberculosis; details: Mtb mc^26020 incubated with FLASH for 1 h
recombinant Hip1 enzyme = molecular target: T1, recombinant Hip1 enzyme (Mycobacterium tuberculosis, UniProt P9WHR3); assay: Hip1 activity measurement with FLASH probe (chemiluminescence); type: biochemical; details: total integrated luminescence after 1 h
T1 construct: Recombinant Hip1 was purified as previously described (Lentz et al., 2016); made in house
T1 sequence (P9WHR3 31-520): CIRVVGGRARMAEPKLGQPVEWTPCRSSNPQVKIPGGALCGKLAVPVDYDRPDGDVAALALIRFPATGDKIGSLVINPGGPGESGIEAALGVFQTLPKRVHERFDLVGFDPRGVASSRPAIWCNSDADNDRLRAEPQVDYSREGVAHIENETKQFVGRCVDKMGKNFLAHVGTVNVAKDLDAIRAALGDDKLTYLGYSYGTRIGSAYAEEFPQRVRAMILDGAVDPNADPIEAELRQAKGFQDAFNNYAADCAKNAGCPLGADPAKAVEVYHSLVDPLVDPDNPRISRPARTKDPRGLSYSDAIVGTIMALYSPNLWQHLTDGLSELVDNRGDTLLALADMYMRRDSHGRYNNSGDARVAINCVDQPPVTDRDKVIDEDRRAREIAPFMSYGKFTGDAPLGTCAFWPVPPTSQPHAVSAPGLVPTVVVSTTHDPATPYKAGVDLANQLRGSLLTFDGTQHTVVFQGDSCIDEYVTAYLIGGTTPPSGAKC

[1] = tested on: nontuberculous mycobacteria (NTM); assay: Detection of Mtb versus nontuberculous mycobacteria cells with FLASH probe; details: IL values for millions or thousands of cells of each species, 1 h with FLASH
Mtb strain H37Rv = type: cell-based, Mycobacterium tuberculosis; details: Mtb H37Rv incubated with FLASH for 1 h

COC1(c2ccc(/C=C/C(=O)O)c(OCc3ccc(NC(=O)[C@H](CC(C)C)NC(=O)[C@H](CCCCN)NC(=O)[C@H](Cc4ccc(Cl)cc4)NC(=O)[C@@H](NC(C)=O)C4Cc5ccccc5C4)cc3)c2Cl)OOC12C1CC3CC(C1)CC2C3 (stereo partly shown) [FLASH] (Ac-[Igl][Phe(4-Cl)]KL-X1)
LOD, lowest number of bacterial cells that can be detected by the probe (Mtb strain mc^26020): ≤ 100,000 cells
limit of detection (LOD) of Hip1 enzyme (recombinant Hip1 enzyme): ~2 pmol
sensitivity to Mtb compared to nontuberculous mycobacteria [1]: more sensitive to Mtb compared to common nontuberculous mycobacteria
LOD, lowest number of bacterial cells that can be detected by the probe (Mtb strain H37Rv): ≤ 100,000 cells
